Source: patent US7968093B2, “Fully human antibodies directed against the human insulin-like growth factor-1 receptor” (ImClone LLC, priority 2003, dated 2011)

Experiments:
[1] = tested on: BxPC-3 human pancreatic carcinoma cells; assay: BxPC-3 xenograft, A12 with CPT-11 or gemcitabine; type: in vivo, athymic nu/nu mice; conditions: for animals with partial tumor regressions: after five weeks of treatment
Protocol: Athymic nu/nu mice were injected subcutaneously with 2×10^6 BxPC-3 human pancreatic carcinoma cells mixed 1:1 with Matrigel. […] All treatments were administered by intraperitoneal injection. Tumor measurements were recorded twice weekly using the formula Volume=(π/6)l×w^2.
At day 18 three animals per group were sacrificed and the tumors resected for midpoint histological evaluation. Treatment and tumor measurements continued on the remaining animals until day 44 with the exception of the TBS group. […] At termination of the study final tumor measurements were recorded, animals sacrificed, and four per group had tumors resected for endpoint histological evaluation.

[2] = tested on: HT-29 human colon carcinoma; assay: HT-29 xenograft, A12 with CPT-11 or paclitaxel; type: in vivo, nu/nu mice; conditions: for inhibition of growth of HT-29 xenografts compared to TBS control: single agent
Protocol: […] nu/nu mice were injected subcutaneously with HT-29 human colon carcinoma cell suspension, at 5×10^6 cells in 0.4 ml mixed 1:1 with Matrigel. […] All treatments were administered by intraperitoneal injection.
Treatment continued for six weeks and tumor measurements were recorded twice weekly using the formula Volume=(π/6)l×w^2. At day 21 four animals per group were sacrificed and the tumors resected for histological evaluation. Treatment and tumor measurements continued on the remaining animals until day 40. At that time final tumor measurements were recorded, animals sacrificed, and four per group had tumor resected for endpoint histological evaluation.

[3] = tested on: HT-29 human colorectal cancer cells; assay: HT-29 xenograft, 2F8 alone or with CPT-11; type: in vivo, athymic nude (nu/nu) mice; conditions: 2F8 0.5 mg or 1 mg IP every three days; CPT-11 100 mg/kg IP once a week
Protocol: We were interested to determine if the anti-IGF-IR antibodies were capable of inhibiting human tumor growth in vivo in a nude mouse xenograft model. Tumors were induced in 3-4 week old athymic nude (nu/nu) mice by subcutaneous injection of 2-3 million viable HT-29 human colorectal cancer cells in cell culture medium. The tumors were allowed to establish and antibody treatment started when the tumor volume reached 200 mm^3. Ten animals were injected with tumor cells per treatment group. Antibody was injected intraperitoneally (IP) every three days at 1 mg or 0.5 mg in 0.5 ml TBS. The drug irenotecan (CPT-11) (LKT Laboratories) was injected IP (100 mg/kg) once a week for four weeks from the initiation of antibody treatment. Control animals received a class matched irrelevant human IgG antibody. Tumor measurements were performed at regular intervals using Vernier calipers, measuring height, width, and length and calculated to determine the total tumor volume. The study was terminated when control tumors reached 3000 mm^3.

[4] = day 19, ip, A12 1 mg 3 times per week, irinotecan 1 mg or gemcitabine 2.5 mg every 7 days
[5] = day 12, ip, A12 1 mg 3 times per week, irinotecan 2 mg or paclitaxel 121 μg every 7 days

SMILES	animals with partial tumor regressions [1]	T/C % [1, 4]	T/C % ([1]; day 23, same regimens)	T/C % ([1]; day 26, same regimens)	T/C % ([1]; day 30, same regimens)	T/C % ([1]; day 32, same regimens)	T/C % ([1]; day 37, same regimens)	T/C % [2, 5]	T/C % ([2]; day 15, same regimens)	T/C % ([2]; day 19, same regimens)	T/C % ([2]; day 22, same regimens)	T/C % ([2]; day 26, same regimens)	T/C % ([2]; day 29, same regimens)	T/C % ([2]; day 33, same regimens)	T/C % ([2]; day 36, same regimens)	T/C % ([2]; day 40, same regimens)	inhibition of growth of HT-29 xenografts compared to TBS control [2]	other results
Nc1ccn([C@@H]2O[C@H](CO)[C@@H](O)C2(F)F)c(=O)n1 [Gemcitabine, gemcitabine]	no tumor regressions	68%	65%	58%	56%	48%	37%	–	–	–	–	–	–	–	–	–	–	Regressions (individual tumor volumes < day 1 of treatment) ([1]; day 19, animals regressing/animals in group): 0/11; Regressions (individual tumor volumes < day 1 of treatment) ([1]; day 23): 0/8; Regressions (individual tumor volumes < day 1 of treatment) ([1]; day 26): 0/8; Regressions (individual tumor volumes < day 1 of treatment) ([1]; day 30): 0/8; Regressions (individual tumor volumes < day 1 of treatment) ([1]; day 32): 0/8; Regressions (individual tumor volumes < day 1 of treatment) ([1]; day 37): 0/8; Regressions (individual tumor volumes < day 1 of treatment) ([1]; day 41): 0/8; Regressions (individual tumor volumes < day 1 of treatment) ([1]; day 44): 0/7
CC(=O)O[C@H]1C(=O)[C@@]2(C)[C@H]([C@H](OC(=O)c3ccccc3)[C@]3(O)C[C@H](OC(=O)[C@H](O)[C@@H](NC(=O)c4ccccc4)c4ccccc4)C(C)=C1C3(C)C)[C@]1(OC(C)=O)CO[C@@H]1C[C@@H]2O [paclitaxel]	–	–	–	–	–	–	–	66%	59%	62%	56%	54%	55%	52%	45%	52%	significantly (P<0.02) inhibited	–
CCc1c2c(nc3ccc(OC(=O)N4CCC(N5CCCCC5)CC4)cc13)-c1cc3c(c(=O)n1C2)COC(=O)[C@]3(O)CC [CPT-11, irinotecan]	no tumor regressions	52%	45%	35%	34%	34%	26%	63%	59%	61%	52%	47%	45%	40%	40%	41%	significantly (P<0.02) inhibited	inhibition of tumor growth [3]: responses were similar to treatment with CPT-11 alone
